In paper PMC11274883, “Anticancer Effect of Pt^[sequence], Pt^II5MESS, Pt^II56MESS and Their Platinum(IV)-Dihydroxy Derivatives against Triple-Negative Breast Cancer and Cisplatin-Resistant Colorectal Cancer” (Cancers, 2024):

Key:
Type in all cases: cell-based
MDA−MB−231 cells = assay: Cellular uptake of Pt by ICP-MS; settings: for Intracellular Concentration: MDA−MB−231, 3 µM; for Intracellular/extracellular ratio: MDA−MB−231, extracellular 3 µM
Procedure: (§1) A final concentration of 10^6 cells/well of MDA−MB−231 and HT29 cells were seeded in 6-well plates and incubated overnight to adhere. The cells were then treated with a final concentration of 3 µM of either Pt^II or Pt^IV complexes. After 0, 0.5, 1, 3, 6, 12, 24 or 30 h, the medium was removed, and the cells were washed three times with cold PBS and allowed to dry. Then, 400 µL of 69% HNO3 (Baseline grade nitric acid with PPB level reported impurities, Seastar Chemicals, Sidney, BC, Canada) was added to each well for 90 min to ensure complete digestion. […] Iridium 193 (^193Ir) was mixed online and introduced into the ICP-MS to check uptake efficiency and matrix interference. All ICP-MS parameters are described in Table S2 and elaborated in Method S3. The results represent an average of three different experiments run in triplicate (±SEM) and expressed as nmol/10^6 cells or µM/cell. Quantification of the cellular uptake of Pt was based on external standards (Certified Standard from Sigma-Aldrich, VIC, Australia) containing Internal standard Ir.
(§2) Method S3. Cellular Uptake of Platinum(II) and (IV) complexes
(§3) A final concentration of 10^6 cells/well of MDA−MB−231 and HT29 cells were seeded in 6-well plates and incubated overnight to adhere. The cells were then treated with a final concentration of 3 µM of either PtII or PtIV complexes. After 0, 0.5, 1, 3, 6, 12, 24 or 30 h, the medium was removed, and the cells were washed three times with cold PBS and allowed to dry. Then, 400 µL of 69% HNO3 (Baseline grade nitric acid with Instrument Quality Grade Nitric acid with ppb level reported impurities, Seastar Chemicals, Sidney, Canada) was added to each well for 90 mins to ensure complete digestion. The digests were then moved to trace -metal free 15 mL centrifuge tubes […]
(§4) concentration of 3.5-4%. Iridium 193 (193Ir), selected as internal standard, has similar first ionisation potential and mass to Platinum 195 (195Pt). A concentration of 50 ppb 193Ir in 2% HNO3 solution was chosen for the Perkin Elmer NexION® Inductively Coupled Plasma Mass Spectrometer (ICP-MS) as it produced a steady state signal intensity of 600-800K counts per second. Mixing and injection of sample and internal standard solution was carried out using an ESI 7 port Valve system (Elemental Scientific, USA). A high-quality Solvent Flex 2 stop pump with 0.38 mm ID tubing was used in conjunction with the ICP-MS’s Peristaltic pump set at 20 […]
(§5) standard both, at 0.25 mL/min) being 0.5 mL/min. The ICP-MS was tuned to high sensitivity settings to facilitate detection of low Pt concentrations in samples. This was done by adjusting the nebuliser gas flow between […] to achieve maximum Indium 115 intensity whilst maintaining an acceptable average oxide and doubly charged ratio of 1.64-2.24% and 1.17-1.69% respectively. The analysis method was set to peak hopping mode with a dwell time of […] and 45 sweeps through the mass spectrum per sample read. […]
(§6) peak integration time of 4500 milliseconds and enabled the collection of numerous data points for peak integration thereby increasing accuracy. The ICP-MS was tuned daily, and its performance optimised to a set of suppliers recommended settings. Analysis was only carried out when optimal oxide and doubly charged ratios with high ionic sensitivity was achieved. All ICP-MS parameters are described in Table S2. The results represent an average of three different experiments run in triplicates (± SEM) and expressed as nmol/106 cells or µM/cell. Quantification of the cellular uptake of Pt was based on external standards (Certified Standard from Sigma-Aldrich NSW, Australia) containing Internal standard Ir. […]

HT29 cells = assay: Cellular uptake of Pt by ICP-MS; settings: for Intracellular Concentration: HT29, 3 µM; for Intracellular/extracellular ratio: HT29, extracellular 3 µM
Procedure: as §1, §2, §3, §4, §5, §6

MDA−MB−231 spheroids = assay: 3D bioprinted spheroid cytotoxicity (WST-1); settings: 72 h, mean ± SEM
Description: (§7) To evaluate the cytotoxic effect of platinum(II) and (IV) complexes in 3D cell culture, MDA−MB−231 or HT29 cells were used to bioprint networks or spheroids with the non-contact drop-on-demand 3D RASTRUM bioprinter (Inventia Life Science, Alexandria, NSW, Australia). The 3D cultures use two constituents: bioink and activator. Cell pellets (2 × 10^6 cells) were resuspended in an activator reagent which forms an instant gel after its addition to the bioink by the bioprinter. The 3D large plug cell model with polyethylene glycol bioinks formulated to mimic the properties of in vivo tissue were chosen as follows. Matrix Px02.31 (activator F177 and bioink F242 with RGD: Fibronectin) was used for MDA−MB−231 3D embedded networks, Px02.00 (activator F177 and bioink F119 without RGD additives, Table S1) was used for MDA−MB−231 spheroids and matrix #Px02.09 (activator F177 and bioink F236 with adhesion peptides including, RGD: Fibronectin, and GFOGER: collagen type I to recapitulate rich in vivo tissue extracellular environments) was used for HT29 spheroids (Inventia Life Science) (Table S1). Each cell line was printed at 10,000 cells/well and loaded with the bioink fluids into the selected printer cartridge. After the automated priming of all fluids into the printer nozzles, each cell line was individually printed on tissue culture plates (Nunc^TM MicroWell^TM 96-Well, Nunclon Delta-Treated, Flat-Bottom Microplate, ThermoFisher #167008), with RASTRUM creating the 3D Large Plug across the 96-well plate. Following completion of the print run, 200 μL DMEM culture medium was added to each well using multichannel pipettes. The plate was then incubated for 7 days (humidified incubator with 5% CO2 at 37 °C) for compact and homogenous spheroid formation before the cytotoxicity assay. When the spheroids developed, post-7-day incubation, media was removed and replaced with 100 µL DMEM. […] Cytotoxicity was then assessed using the WST-1 assay as previously described in Section 2.3.

HT29 spheroids = assay: 3D bioprinted spheroid cytotoxicity (WST-1); settings: 72 h, mean ± SEM
Description: as §7

Cc1c(C)c2cccnc2c2ncccc12.N[C@H]1CCCC[C@@H]1N.O=[N+]([O-])[O-].O=[N+]([O-])[O-].[OH][Pt+2][OH] [Pt^IV56MESS(OH)2, [Pt(5,6-dimethyl-1,10-phenanthroline)(1S,2S-diaminocyclohexane)(dihydroxy)](NO3)2]
Intracellular Concentration (MDA−MB−231 cells; 0 h): 0.14 nmol/10^6 cells
Intracellular Concentration (MDA−MB−231 cells; 0.5 h): 0.11 nmol/10^6 cells
Intracellular Concentration (MDA−MB−231 cells; 1 h): 0.05 nmol/10^6 cells
Intracellular Concentration (MDA−MB−231 cells; 3 h): 0.25 nmol/10^6 cells
Intracellular Concentration (MDA−MB−231 cells; 6 h): 0.30 nmol/10^6 cells
Intracellular Concentration (MDA−MB−231 cells; 12 h): 1.16 nmol/10^6 cells
Intracellular Concentration (MDA−MB−231 cells; 24 h): 2.74 nmol/10^6 cells
Intracellular Concentration (MDA−MB−231 cells; 30 h): 4.19 nmol/10^6 cells
Intracellular/extracellular ratio (MDA−MB−231 cells; 0.5 h): 50.71
Intracellular/extracellular ratio (MDA−MB−231 cells; 1 h): 26.14
Intracellular/extracellular ratio (MDA−MB−231 cells; 3 h): 117.57
Intracellular/extracellular ratio (MDA−MB−231 cells; 6 h): 142.93
Intracellular/extracellular ratio (MDA−MB−231 cells; 12 h): 548.82
Intracellular/extracellular ratio (MDA−MB−231 cells; 24 h): 1293.81
Intracellular Concentration (HT29 cells; 0 h): 0.14 nmol/10^6 cells
Intracellular Concentration (HT29 cells; 0.5 h): 0.18 nmol/10^6 cells
Intracellular Concentration (HT29 cells; 1 h): 0.28 nmol/10^6 cells
Intracellular Concentration (HT29 cells; 3 h): 0.42 nmol/10^6 cells
Intracellular Concentration (HT29 cells; 6 h): 1.74 nmol/10^6 cells
Intracellular Concentration (HT29 cells; 12 h): 5.43 nmol/10^6 cells
Intracellular Concentration (HT29 cells; 24 h): 9.14 nmol/10^6 cells
Intracellular Concentration (HT29 cells; 30 h): 9.98 nmol/10^6 cells
Intracellular/extracellular ratio (HT29 cells; 0 h): 21.81
Intracellular/extracellular ratio (HT29 cells; 0.5 h): 28.52
Intracellular/extracellular ratio (HT29 cells; 1 h): 43.51
Intracellular/extracellular ratio (HT29 cells; 3 h): 66.77
Intracellular/extracellular ratio (HT29 cells; 6 h): 273.54
Intracellular/extracellular ratio (HT29 cells; 12 h): 854.01
Intracellular/extracellular ratio (HT29 cells; 24 h): 1435.74
Intracellular/extracellular ratio (HT29 cells; 30 h): 1568.28
IC50 (MDA−MB−231 spheroids): 4590 ± 1350 nM
IC50 (HT29 spheroids): 3160 ± 1320 nM

Cc1c(C)c2cccnc2c2ncccc12.N[C@H]1CCCC[C@@H]1N.O=[N+]([O-])[O-].O=[N+]([O-])[O-].[Pt+2] [Pt^II56MESS, [Pt(5,6-dimethyl-1,10-phenanthroline)(1S,2S-diaminocyclohexane)](NO3)2]
Intracellular Concentration (MDA−MB−231 cells; 0 h): 0.68 nmol/10^6 cells
Intracellular Concentration (MDA−MB−231 cells; 0.5 h): 0.58 nmol/10^6 cells
Intracellular Concentration (MDA−MB−231 cells; 1 h): 0.78 nmol/10^6 cells
Intracellular Concentration (MDA−MB−231 cells; 3 h): 1.24 nmol/10^6 cells
Intracellular Concentration (MDA−MB−231 cells; 6 h): 1.88 nmol/10^6 cells
Intracellular Concentration (MDA−MB−231 cells; 12 h): 4.80 nmol/10^6 cells
Intracellular Concentration (MDA−MB−231 cells; 24 h): 5.38 nmol/10^6 cells
Intracellular Concentration (MDA−MB−231 cells; 30 h): 11.24 nmol/10^6 cells
intracellular/extracellular ratio relative to the maximum ratio of cisplatin (MDA−MB−231 cells; MDA−MB−231, 30 h): 8.7 fold
Intracellular/extracellular ratio (MDA−MB−231 cells; 0 h): 107.16
Intracellular/extracellular ratio (MDA−MB−231 cells; 0.5 h): 92.36
Intracellular/extracellular ratio (MDA−MB−231 cells; 1 h): 122.42
Intracellular/extracellular ratio (MDA−MB−231 cells; 3 h): 195.59
Intracellular/extracellular ratio (MDA−MB−231 cells; 6 h): 296.93
Intracellular/extracellular ratio (MDA−MB−231 cells; 12 h): 754.52
Intracellular/extracellular ratio (MDA−MB−231 cells; 24 h): 845.27
Intracellular/extracellular ratio (MDA−MB−231 cells; 30 h): 1765.95 ± 526.75
Intracellular/extracellular ratio (MDA−MB−231 cells; 30 h, listed as 56MESS): around 1766
Intracellular/extracellular ratio (MDA−MB−231 cells; 30 h, listed as PtII56MESS): 1765.95
drug's concentration per cell (MDA−MB−231 cells; per MDA−MB−231 cell, cell volume 1.7 pL, starting concentration 3 µM): about 5298 µM
Intracellular Concentration (HT29 cells; 0 h): 0.45 nmol/10^6 cells
Intracellular Concentration (HT29 cells; 0.5 h): 0.87 nmol/10^6 cells
Intracellular Concentration (HT29 cells; 1 h): 1.38 nmol/10^6 cells
Intracellular Concentration (HT29 cells; 3 h): 2.23 nmol/10^6 cells
Intracellular Concentration (HT29 cells; 6 h): 5.05 nmol/10^6 cells
Intracellular Concentration (HT29 cells; 12 h): 17.67 nmol/10^6 cells
Intracellular Concentration (HT29 cells; 24 h): 23.28 nmol/10^6 cells
Intracellular Concentration (HT29 cells; 30 h): 24.85 nmol/10^6 cells
intracellular/extracellular ratio relative to the maximum ratio of cisplatin (HT29 cells; HT29, 30 h): 34.8 fold
Intracellular/extracellular ratio (HT29 cells; 0 h): 70.93
Intracellular/extracellular ratio (HT29 cells; 0.5 h): 136.74
Intracellular/extracellular ratio (HT29 cells; 1 h): 216.82
Intracellular/extracellular ratio (HT29 cells; 3 h): 350.73
Intracellular/extracellular ratio (HT29 cells; 6 h): 793.80
Intracellular/extracellular ratio (HT29 cells; 12 h): 2776.28
Intracellular/extracellular ratio (HT29 cells; 24 h): 3657.59
Intracellular/extracellular ratio (HT29 cells; 30 h, listed as 56MESS): ~3904
Intracellular/extracellular ratio (HT29 cells; 30 h, listed as PtII56MESS): 3903.51
drug's concentration per cell (HT29 cells; per HT29 cell, cell volume 1.7 pL, starting concentration 3 µM): ~11,711 µM
IC50 (MDA−MB−231 spheroids): 2490 ± 1980 nM
IC50 (HT29 spheroids): 990 ± 1290 nM
